This is an account of results in US9545105B2, “1-(heterocyclic carbonyl) piperidines” (BAYER INTELLECTUAL PROPERTY GMBH, priority 2010, dated 2017).

The subject of one series is Pyrenophora teres. Put plainly: In vivo preventive test on Pyrenophora teres (barley). To be noted: 500 ppm of active ingredient, evaluated 7-9 days after inoculation. In outline: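 Young barley plants sprayed with compound in DMF/alkylaryl polyglycol ether emulsion; inoculated with P. teres spores one day later. 48 h at 22 °C, 100% humidity, then greenhouse ~20 °C, ~80% humidity; efficacy scored 7-9 days post-inoculation, 0% = untreated, 100% = no disease.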

In the next series the test system is Sphaerotheca fuliginea. Put plainly: In vivo preventive test on Sphaerotheca fuliginea (cucumber). To be noted: 500 ppm of active ingredient, evaluated 7 days after inoculation. As for the experimental part:
Solvent: 49 parts by weight of N,N-dimethylformamide Emulsifier: 1 part by weight of Alkylarylpolyglycolether To produce a suitable preparation of active compound, 1 part by weight of active compound is mixed with the stated amounts of solvent and emulsifier, and the concentrate is diluted with water to the desired concentration. To test for preventive activity, young plants are sprayed with the preparation of active compound at the stated rate of application. One day after this treatment, the plants are inoculated with an aqueous spore suspension of Sphaerotheca fuliginea. Then the plants are placed in a greenhouse at approximately 23° C. and a relative atmospheric humidity of approximately 70%. The test is evaluated 7 days after the inoculation. 0% means an efficacy which corresponds to that of the untreated control, while an efficacy of 100% means that no disease is observed.

Series [1] is described as follows: log P by HPLC on reversed-phase column (C 18), EEC Directive 79/831 Annex V.A8. Type of series: physicochemical. To be noted: HPLC on reversed-phase column (C 18); 40° C.; 0.1% aqueous formic acid and acetonitrile; linear gradient 10% to 90% acetonitrile. In outline: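 Gradient elution (10% to 90% acetonitrile, 0.1% aqueous formic acid) at 40° C; log P interpolated linearly between flanking alkan-2-one standards (3 to 16 carbons).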

Another series concerns Alternaria solani. Kind of series: In vivo preventive test on Alternaria solani (tomato). The note with it: 500 ppm of active ingredient, evaluated 7 days after inoculation. The protocol: Solvent: 49 parts by weight of N,N-dimethylformamide Emulsifier: 1 part by weight of Alkylarylpolyglycolether To produce a suitable preparation of active compound, 1 part by weight of active compound is mixed with the stated amounts of solvent and emulsifier, and the concentrate is diluted with water to the desired concentration. To test for preventive activity, young plants are sprayed with the preparation of active compound at the stated rate of application. One day after this treatment, the plants are inoculated with an aqueous spore suspension of Alternaria solani. The plants remain for one day in an incubation cabinet at approximately 22° C. and a relative atmospheric humidity of 100%. Then the plants are placed in an incubation cabinet at approximately 20° C. and a relative atmospheric humidity of 96%. The test is evaluated 7 days after the inoculation. 0% means an efficacy which corresponds to that of the untreated control while an efficacy of 100% means that no disease is observed.

In the case of `Cc1ccccc1C1CCCCN1C(=O)c1c(C(F)F)nn(C)c1F` (stereo not shown) [Example 6], the Efficacy in the series with Pyrenophora teres is 100%; in the series on Sphaerotheca fuliginea, 95%; with Alternaria solani, 100%. In series [1], the logP stood at 3.21.
For `Cc1ccccc1C1CCCCN1C(=S)c1c(C(F)F)nn(C)c1F` (stereo not shown) [Example 7], the Efficacy was 100% in the series on Pyrenophora teres, 100% with Sphaerotheca fuliginea and 95% in the series on Alternaria solani. The logP in series [1] is 3.81.
As to `Cc1ccc(C2CCCCN2C(=O)c2c(C(F)F)nn(C)c2F)cc1C` (stereo not shown) [Example 9], the results for the Efficacy in the series on Pyrenophora teres, in the series on Sphaerotheca fuliginea and in the series on Alternaria solani were 100%, 93% and 95%, respectively. Besides, the logP in series [1] was 3.64.
On to `Cn1nc(C(F)F)c(C(=O)N2CCCCC2c2ccccc2Cl)c1F` (stereo not shown) [Example 41], for which the Efficacy with Pyrenophora teres, in the series with Sphaerotheca fuliginea and in the series with Alternaria solani was 100% in each case. In addition, the logP in series [1] is 3.31.
With `Cn1nc(C(F)F)c(C(=S)N2CCCCC2c2ccccc2Cl)c1F` (stereo not shown) [Example 42], the Efficacy with Pyrenophora teres, in the series on Sphaerotheca fuliginea and with Alternaria solani was 100% throughout. The compound also came in with a logP in series [1] of 4.00.
`CCc1noc(C)c1C(=O)N1CCCCC1c1ccc(Br)s1` (stereo not shown) [Example 126]: the Efficacy in the series with Sphaerotheca fuliginea is recorded as 95%. The same compound yielded a logP in series [1] of 3.67.
For `Cn1nc(C(F)F)c(C(=O)N2CCCCC2CCOc2ccc(F)cc2F)c1F` (stereo not shown) [Example 182], the Efficacy in the series on Pyrenophora teres and in the series on Alternaria solani was 100% in each case. This compound also displayed a logP in series [1] of 3.29.
On to `Cn1nc(C(F)F)c(C(=O)N2CCCCC2CCOc2ccc(F)cc2F)c1Cl` (stereo not shown) [Example 183], for which the Efficacy stood at 100% in the series with Pyrenophora teres and 95% in the series with Alternaria solani. In series [1], this compound returned a logP of 3.46.
As for `Cn1nc(C(F)F)c(C(=O)N2CCCCC2CCOc2ccc(Cl)cc2Cl)c1Cl` (stereo not shown) [Example 184], the Efficacy with Pyrenophora teres amounted to 100%; with Alternaria solani, 95%. The lipophilicity (logP) in series [1] came to 4.26.
On to `Cn1nc(C(F)F)c(C(=O)N2CCCCC2CCOc2ccc(Cl)cc2Cl)c1F` (stereo not shown) [Example 185], for which the Efficacy in the series with Pyrenophora teres turned out to be 95%; in the series on Alternaria solani, 100%. The compound also came in with a logP in series [1] of 4.06.
As to `Cn1nc(C(F)F)c(C(=O)N2CCCCC2CCOc2ccccc2-c2ccccc2)c1Cl` (stereo not shown) [Example 186], the Efficacy with Pyrenophora teres is 95%; with Alternaria solani it was 80%. This compound also returned a lipophilicity (logP) in series [1] of 4.39.
For `Cn1nc(C(F)F)c(C(=O)N2CCCCC2CCOc2ccccc2-c2ccccc2)c1F` (stereo not shown) [Example 187] the same measures were 95%, 95% and 4.21.
On to `Cn1nc(C(F)F)c(C(=O)N2CCCCC2CCOc2ccc(-c3ccccc3)cc2)c1Cl` (stereo not shown) [Example 188], for which the values for the Efficacy with Pyrenophora teres and with Alternaria solani were 95% and 70%, respectively. In series [1], this compound had a logP of 4.49.
On to `Cn1nc(C(F)F)c(C(=O)N2CCCCC2CCOc2ccc(-c3ccccc3)cc2)c1F` (stereo not shown) [Example 189], for which the Efficacy was 95% with Pyrenophora teres and 100% in the series on Alternaria solani. In series [1], this compound came in with a lipophilicity (logP) of 4.31.
For `Cn1nc(C(F)F)c(C(=O)N2CCCCC2CCOc2ccc3ccccc3c2)c1Cl` (stereo not shown) [Example 190] the same measures were 95%, 90% and 4.09.
For `Cn1nc(C(F)F)c(C(=O)N2CCCCC2CCOc2ccc3ccccc3c2)c1F` (stereo not shown) [Example 191] the same measures were 100%, 100% and 3.92.
As to `Cn1nc(C(F)F)c(C(=O)N2CCCCC2CCc2cccs2)c1F` (stereo not shown) [Example 194], the Efficacy in the series with Pyrenophora teres and in the series on Alternaria solani was 100% in each case. For the same compound, the logP in series [1] stood at 3.25.
With `Cn1nc(C(F)F)c(C(=O)N2CCCCC2CCOc2ccc(C(F)(F)F)cn2)c1Cl` (stereo not shown) [Example 195], the Efficacy is listed as 95% in the series on Pyrenophora teres and 100% with Alternaria solani. Also, the logP in series [1] is listed as 3.74.

A word on the logP: it is a log measure of how a compound divides between an organic and an aqueous phase. A high value points to a more lipophilic compound.
